Where no end group is shown, it is not given here.
Tests used:
C. albicans [1] = assay: Kirby-Bauer disk diffusion, C. albicans; format: cell-based, Candida albicans; details: disks treated with 1 mM, five-day incubation at 30 °C
HEK293T [2] = assay: XTT viability assay, HEK293T; format: cell-based, human
HEK293T [3] = assay: Confocal microscopy of membrane integrity, HEK293T; format: cell-based, human; details: 100 µM prodrug, 3 hours at 37 °C, CellBrite Fix Membrane Stain 640
Protocol: (§1) standard curve: ∆PLCy5.5 vs. [fully-digested FRET probe]. Data were then fitted to the following Michaelis-Menten equation: ! = !!"#[…]. […]
(§2) amino acid sequences were provided. PEP-FOLD then employs a physics-based energy function […]
(§3) structures for the given peptide sequence. […]
(§4) dynamics sampling approach. […]
(§5) energy and the agreement with experimental or theoretical constraints. The algorithm selects the […]
(§6) allowed to grow overnight. […]
(§7) peptides for 3 hours at 37 °C. Next, cells were washed three times with sterile PBS. Mammalian […]
(§8) PBS (Thermo Scientific) at room temperature for 20 min. Cells were imaged by a confocal […]
(§9) Transmission Electron Microscopy. […]
(§10) by air drying overnight. Cellular morphology was conducted using the same microscope. Here, […]
(§11) nanomedicine lab (UCSD NanoEngineering). Cells were cultured in complete Dulbecco’s […]
(§12) Streptomycin), at 37 °C and 5% CO2. Passages were conducted with 0.25% Trypsin EDTA before […]
(§13) signal that is proportional to H2O2 concentration. Cells were seeded into 96-well plates (Corning, […]

P. gingivalis [4] = assay: Kirby-Bauer disk diffusion, P. gingivalis; format: cell-based, Porphyromonas gingivalis; details: disks treated with 1 mM, five-day incubation at 37 °C
SAP9 = molecular target: T1, SAP9 (Candida albicans, UniProt Q59SU1); assay: Enzyme digestion by recombinant SAP9 (MALDI-TOF / ESI-MS); format: biochemical; details: 37 °C; for Cleavage / degradation by SAP9: 300 nM recombinant SAP9, 3 h, 9.5 mM MES, 2.7 mM KCl, 140 mM NaCl pH 5.5, 455 µM peptide, MALDI-TOF (ESI-MS for P-113)
T1 construct: purchased MyBioSource (San Diego, CA)
T1 sequence (Q59SU1 18-544): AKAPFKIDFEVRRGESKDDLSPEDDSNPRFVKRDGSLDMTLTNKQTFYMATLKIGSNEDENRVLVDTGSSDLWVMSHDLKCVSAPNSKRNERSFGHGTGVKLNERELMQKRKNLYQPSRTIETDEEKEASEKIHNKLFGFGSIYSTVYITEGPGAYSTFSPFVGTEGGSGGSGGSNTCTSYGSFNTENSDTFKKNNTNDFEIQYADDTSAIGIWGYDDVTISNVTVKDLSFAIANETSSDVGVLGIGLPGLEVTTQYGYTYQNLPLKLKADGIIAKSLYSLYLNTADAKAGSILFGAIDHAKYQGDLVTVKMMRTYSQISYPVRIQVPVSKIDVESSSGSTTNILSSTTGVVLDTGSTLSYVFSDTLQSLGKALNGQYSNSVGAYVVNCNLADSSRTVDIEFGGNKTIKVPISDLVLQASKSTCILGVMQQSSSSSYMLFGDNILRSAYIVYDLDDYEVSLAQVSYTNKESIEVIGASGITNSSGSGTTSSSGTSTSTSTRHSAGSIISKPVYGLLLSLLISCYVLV
Protocol: (§14) Probe activation, kinetics, and cytotoxicity.
(§15) Enzyme digestion. SAP9 and RgpB cleavage were both performed with 455 µM of peptide. […] Then, 10 µL of the enzyme at the appropriate concentration was added. An optimized final concentration of 300 nM for SAP9 and 200 nM for RgpB were used. The solution was incubated at 37 °C for 3 hours for RgpB and SAP9 for optimal cleavage.

RgpB = molecular target: T2, RgpB (Porphyromonas gingivalis, UniProt P95493); assay: Enzyme digestion by recombinant RgpB (MALDI-TOF / ESI-MS); format: biochemical; details: 37 °C
T2 construct: gift from Professor Anthony O'Donoghue (UC San Diego)
T2 sequence (P95493 230-736): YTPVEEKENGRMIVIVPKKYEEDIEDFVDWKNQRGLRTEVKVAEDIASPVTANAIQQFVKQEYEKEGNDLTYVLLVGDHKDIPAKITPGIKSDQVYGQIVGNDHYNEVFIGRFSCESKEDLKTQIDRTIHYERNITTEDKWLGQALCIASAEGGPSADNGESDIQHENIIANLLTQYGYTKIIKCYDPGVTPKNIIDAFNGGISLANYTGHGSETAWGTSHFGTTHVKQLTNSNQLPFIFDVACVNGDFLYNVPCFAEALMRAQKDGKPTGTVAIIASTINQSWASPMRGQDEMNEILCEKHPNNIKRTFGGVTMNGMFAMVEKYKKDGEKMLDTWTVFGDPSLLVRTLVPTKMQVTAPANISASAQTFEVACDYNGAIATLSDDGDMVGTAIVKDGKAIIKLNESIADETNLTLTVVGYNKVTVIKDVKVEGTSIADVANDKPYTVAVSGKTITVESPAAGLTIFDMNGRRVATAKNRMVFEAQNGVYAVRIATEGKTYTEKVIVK
Protocol: as §14, §15

C. albicans [5] = assay: ROS H2O2 luminescence assay, C. albicans; format: cell-based, Candida albicans; details: 10 μM, 4 hours, ROS-Glo H2O2 assay, versus cells + PBS
Protocol: (§16) The assay uses an H2O2 substrate that reacts directly with H2O2 to generate a luciferin precursor [55]. It was predicted that exposure of the microorganisms to the prodrug would lead to alterations in their normal physiological processes thus triggering a stress response and inducing the generation of ROS. […] This is consistent with previous studies wherein ROS production is credited as the secondary event of the fungicidal mechanism of P-113 [56]. […]
as §7
(§17) PBS (Thermo Scientific) at room temperature for 20 min. […]
(§18) Cells were cultured in complete Dulbecco’s
as §12, §13
(§19) then incubated for 4 hours at 37 °C before 100µl of ROS-Glo™ Detection Solution was added to each well. Finally, the plate was incubated for 20 minutes at room temperature and the relative luminescence was recorded using a plate reader (Synergy H1, BioTek). […]
(§20) LoB = meanblank + 1.645 (SDblank) […]
(§21) LoD = LoB + 1.645 (SDlow concentration sample).
(§22) Statistical Analysis. Statistical analysis was conducted using GraphPad Prism 10. […]
(§23) A P-value of < 0.05 was […]
(§24) considered significant. […]

P. gingivalis [6] = assay: ROS H2O2 luminescence assay, P. gingivalis; format: cell-based, Porphyromonas gingivalis; details: 10 μM, 4 hours, ROS-Glo H2O2 assay, versus cells + PBS
Protocol: as §16, §7, §17, §18, §12, §13, §19, §20, §21, §22, §23, §24

C. albicans [7] = test system: C. albicans; parameters: method as in PMID 27458227; details: previous work; cited from earlier work
C. albicans [8] = assay: XTT viability assay, C. albicans; format: cell-based, Candida albicans; details: intact peptide, 10 µM, 3 h at 37 °C, absorbance 490 nm, sextuplet measurements
Protocol: Fungal culture. In situ culturing C. albicans (ATCC 90028) from lyophilized stock (KWIK-STIK, VWR) was conducted on Sabouraud dextrose agar plates (Sigma-Aldrich) 2 to 5 days in advance of the antifungal assay. The plates were then incubated at 30°C and pearl-like colonies were observed, indicative of C. albicans. Single colonies were then extracted with sterilized inoculation loops and inoculated in 3 mL yeast extract peptone dextrose (YEPD) medium (2% Bacto^TMpeptone, 2% Dextrose, 1% Yeast extract in H2O) using Biological Safety Level 2 (BSL-2) practices and procedures. Note, the broth was autoclaved before use and stored at room temperature. […] The culture was finally diluted 1:100 and the OD600 was measured wherein OD600 = 0.5 a.u. correlates to approximately 1 × 10^6 cells/ mL in 100 µL RPMI-1640 medium with L-glutamine and 3-(N-morpholino)propane sulfonic acid (MOPS) without sodium bicarbonate, pH 7.0. […]
Viability assay. The percent toxicity was calculated using an XTT (2,3-bis-(2-methoxy-4-nitro-5-sulfophenyl)-2H-tetrazolium-5-carboxanilide) colorimetric assay (Biotium) wherein viable cells form an orange formazan product upon reduction. […] The absorbance of the formazan dye was measured at a wavelength of 490 nm using a microplate reader. Here, the absorbance is directly proportional to the number of viable cells present in each well. […]

P. gingivalis [9] = assay: XTT viability assay, P. gingivalis; format: cell-based, Porphyromonas gingivalis; details: 10 µM
F. nucleatum = assay: XTT viability assay, F. nucleatum; format: cell-based, Fusobacterium nucleatum; details: intact peptide
C. albicans [10] = assay: TEM of cell morphology, C. albicans; format: cell-based, Candida albicans; details: 3 hours at 37 °C; S1 at 40 µM
Text: (§25) Finally, the target microorganisms were also imaged using transmission electron microscopy (TEM) to visualize the cell morphology. Figure 3C presents C. albicans cells. On the left, the untreated cells show a rigid and intact membrane in contrast to the […] (+ S1) showing decreased cell density and clear destruction of the membranes. This obvious change in morphology is seen at other magnifications (Supplementary Figure S19). […]
as §1, §2, §3, §4, §5, §6, §7, §8, §9, §10, §11, §12

P. gingivalis [11] = assay: TEM of cell morphology, P. gingivalis; format: cell-based, Porphyromonas gingivalis; details: 3 hours at 37 °C; G1 at 40 µM
Text: as §25, §1, §2, §3, §4, §5, §6, §7, §8, §9, §10, §11, §12

**Q.** Which “Growth inhibition in disk diffusion test” value (C. albicans [1]) does the source give for OC(Cn1cncn1)(Cn1cncn1)c1ccc(F)cc1F [FLZ, fluconazole, reference compound] here?
**A.** Its value is “Obvious growth inhibition”.

**Q.** For AKRHHGYKRKFHGGAGPRIDGGDDDDDD-NH2 [G1], which “Toxicity to HEK293T compared to P-113” value (HEK293T [2]; intact prodrug, 10 µM, XTT) is on record?
**A.** Its value is “decreased toxicity by nearly half”.

**Q.** What about the “Membrane integrity by confocal microscopy” value (HEK293T [3]) of the same compound?
**A.** Its value is “membrane remained intact”.

**Q.** For “Ac-AKRHHGYKRKFH-NH2 [P-113, reference compound]”, which “MIC for HEK293T relative to MIC for the oral microorganisms” value (HEK293T [2]) is on record?
**A.** Its value is about 100 times.

**Q.** And the “Growth inhibition in disk diffusion test” value (C. albicans [1])?
**A.** The value was “Obvious growth inhibition”.

**Q.** What about the “Growth inhibition in disk diffusion test” value (P. gingivalis [4]) of the same compound?
**A.** The value was “Colony growth is inhibited”.

**Q.** And the “Cleavage / degradation by SAP9” value (SAP9)?
**A.** Its value is “no degradation”.

**Q.** What about the “Cleavage / degradation by RgpB” value (RgpB; 200 nM recombinant RgpB, 3 h, 0.2 M Tris HCl pH 7.6, 5 mM CaCl2, 100 mM NaCl, 40 mM TCEP, 455 µM peptide, MALDI-TOF (ESI-MS for P-113)) of the same compound?
**A.** The value was “no degradation”.

**Q.** And the “H2O2 ROS generation, relative luminescence” value (C. albicans [5])?
**A.** The value was “six-fold increase”.

**Q.** And the “H2O2 ROS generation, relative luminescence” value (P. gingivalis [6])?
**A.** Its value is “six-fold increase”.

**Q.** What about the MIC (C. albicans [7]) of the same compound?
**A.** The MIC was 10 µM.

**Q.** Which Percent toxicity (C. albicans [8]) does the source give for “Ac-AKRHHGYKRKFHGGVKKKDVVDGGDDDDDD-NH2 [S1]” here?
**A.** Its Percent toxicity is 70%.

**Q.** And the “Change of percent toxicity upon cleavage” value (P. gingivalis [9]; S1 pre-cleaved in vitro by 300 nM recombinant SAP9 versus intact (30%))?
**A.** Its value is “nearly doubled”.

**Q.** And the Percent toxicity (P. gingivalis [9]; intact peptide, 3 h at 37 °C, absorbance 490 nm, sextuplet measurements)?
**A.** The Percent toxicity was 30%.

**Q.** What about the Percent toxicity (F. nucleatum; 10 µM, 3 h at 37 °C) of the same compound?
**A.** The Percent toxicity was 15%.

**Q.** What about the “Percent toxicity, highest over the titration” value (F. nucleatum; all tested concentrations) of the same compound?
**A.** Its value is at most 50%.

**Q.** And the “Inhibited growth relative to the positive control treatment (FLZ)” value (C. albicans [1]; disk diffusion, diameter relative to fluconazole)?
**A.** Its value is “approximately 70%”.

**Q.** And the “Growth inhibition in disk diffusion test” value (C. albicans [1])?
**A.** The value was “Obvious growth inhibition”.

**Q.** And the “Growth inhibition in disk diffusion test” value (P. gingivalis [4])?
**A.** The value was “No growth inhibition”.

**Q.** And the “Cleavage / degradation by SAP9” value (SAP9)?
**A.** The value was “obvious mass peaks corresponding to the cleaved fragments”.

**Q.** And the “Cleavage by SAP9, S1 and G1 co-incubated” value (SAP9; joint solution of S1 and G1, SAP9 300 nM, 3 hours, MALDI-TOF)?
**A.** Its value is “S1 converting to S1 fragment”.

**Q.** And the “Cleavage by RgpB, S1 and G1 co-incubated” value (RgpB; joint solution of S1 and G1, RgpB 300nM, 3 hours, MALDI-TOF)?
**A.** Its value is “S1 remaining intact”.

**Q.** And the “H2O2 ROS generation, relative luminescence” value (C. albicans [5])?
**A.** Its value is “six-fold increase”.

**Q.** And the “H2O2 ROS generation, relative luminescence” value (P. gingivalis [6])?
**A.** The value was “little luminescence”.

**Q.** And the “Cell morphology by TEM” value (C. albicans [10])?
**A.** The value was “decreased cell density and cell rupturing”.

**Q.** And the “Cell morphology by TEM” value (P. gingivalis [11])?
**A.** Its value is “intact cell structures”.

Reference: PMC10879876, “Activatable prodrug for controlled release of an antimicrobial peptide via the proteases overexpressed in Candida albicans and Porphyromonas gingivalis” (Theranostics, 2024)
